“Also recorded” adds a separate entry of the source.
Key:
A549 cells = assay: Palmitate-driven respiration in intact A549 cells (Seahorse); format: cell-based; settings: intact A549, albumin-buffered palmitate
Method: All respirometry studies were conducted in either a Seahorse XF96 or XFe96 Analyzer. All experiments were conducted at 37° C., and at pH 7.4 (intact cells) or 7.2 (permeabilized cells and isolated mitochondria). Calculation of respiratory parameters was made according to standard protocols (Divakaruni, A. S., Paradyse, A., Ferrick, D. A., Murphy, A. N., and Jastroch, M. (2014a) Analysis and interpretation of microplate-based oxygen consumption and pH data. Meth. Enzym 547, 509-54), and all rates were corrected for non-mitochondrial respiration/background signal by subtracting the oxygen consumption rate insensitive to rotenone plus antimycin A.
Palmitate oxidation in intact cells (FIG. 1A, FIG. 1B) was assessed by measuring palmitate-driven respiration that was sensitive to low concentrations of etomoxir (Rogers, G. W., Nadanaciva, S., Swiss, R., Divakaruni, A. S., and Will, Y. (2014) Assessment of fatty acid beta oxidation in cells and isolated mitochondria. Curr. Protoc. Toxicol. 60, 25.3, 1-19). […] Respiration was measured under basal conditions as well as after injection of 2 μM oligomycin, two sequential additions of 1 μM FCCP, followed by 0.2 μM rotenone with 1 μM antimycin A. Etomoxir was added to the assay medium 30 min. prior to measurements of basal respiratory rates.

[1] = system: Relma, Mgl2, Ym1, Fabp4, Arg1 expression; assay: qPCR of IL-4-associated genes in BMDMs; format: cell-based, mouse
Method: For all gene expression and flow cytometry experiments described below, day 6 BMDM were plated at 3×10^5 cell/well in 12-well plates. The next day, cells were treated with appropriate compounds (and duration as indicated in figures and below) in DMEM supplemented with 5% FBS, 2 mM L-glutamine, 100 units/mL, 100 μg/mL penicillin/streptomycin, 500 μM of sodium pyruvate and 5% v/v conditioned media containing macrophage colony stimulating factor (M-CSF).
For flow cytometry experiments involving etomoxir (FIG. 1G, FIG. 2A, FIG. 2D, FIG. 3A, FIG. 3B, FIG. 3G, FIG. 3H): BMDMs were mock-treated (media replacement only) or treated with 20 ng/mL of IL-4±3 μM or 200 μM of etomoxir for 48 hr. When measuring expression of M(IL-4)-associated genes in response to etomoxir (FIG. 1H, FIG. 2B), BMDMs were mock-treated or treated with 20 ng/mL of IL4±etomoxir as indicated for 24 hr.
For experiments involving respiratory chain inhibitors: BMDMs were mock-treated (media replacement only) or treated with 20 ng/mL of IL4±1.2 μM oligomycin (Oligo), 200 nM rotenone (Rot), 200 nM antimycin A (AntiA), 100 nM piericidin A (PierA), or 5 μM carboxyatractylate (CAT) for either 24 (FIG. 4G, FIG. 4H, FIG. 6G) or 48 hr (FIG. 4F, FIG. 7D). All inhibitors were given as co-treatments simultaneously with IL-4.
RNA was isolated with TRIzol, then cDNA was synthesized with high-capacity cDNA reverse transcription kit. KAPA SYBR FAST qPCR Master Mix kit and a LightCycler 480 were used for quantitative RT-PCR. Fold change related to the control group was calculated using […] with 36b4 as the reference gene.

respiratory complex I = assay: Respiration in double-permeabilized HepG2 cells; format: biochemical; settings: 100 μM etomoxir
Method: When permeabilized cells were treated with alamethicin to form pores of 3-6 kDa in the mitochondrial inner membrane (“double-permeabilized” cells) and complex I-mediated respiration was directly assessed (FIG. 6F), 10 μg/mL alamethicin was added at 37° C. 15 minutes prior to measurements (Divakaruni, A. S., Andreyev, A. Y., Rogers, G. W., and Murphy, A. N. (2017a) In situ measurements of mitochondrial matrix enzyme activities using plasma and mitochondrial membrane permeabilization agents. Anal. Biochem. 17, 30385-8). Double-permeabilized cells were offered 10 μM cytochrome c in the experimental medium and either 10 mM NADH or 10 mM succinate with 2 μM rotenone to drive respiration.

CPT-1 = biological target: T1, CPT-1 (Homo sapiens, UniProt P50416); assay: Palmitoyl CoA-driven respiration in permeabilized A549 cells; format: cell-based; parameters: endogenous in cells; host or cells: A549 (A6)
T1 sequence (P50416 1-773): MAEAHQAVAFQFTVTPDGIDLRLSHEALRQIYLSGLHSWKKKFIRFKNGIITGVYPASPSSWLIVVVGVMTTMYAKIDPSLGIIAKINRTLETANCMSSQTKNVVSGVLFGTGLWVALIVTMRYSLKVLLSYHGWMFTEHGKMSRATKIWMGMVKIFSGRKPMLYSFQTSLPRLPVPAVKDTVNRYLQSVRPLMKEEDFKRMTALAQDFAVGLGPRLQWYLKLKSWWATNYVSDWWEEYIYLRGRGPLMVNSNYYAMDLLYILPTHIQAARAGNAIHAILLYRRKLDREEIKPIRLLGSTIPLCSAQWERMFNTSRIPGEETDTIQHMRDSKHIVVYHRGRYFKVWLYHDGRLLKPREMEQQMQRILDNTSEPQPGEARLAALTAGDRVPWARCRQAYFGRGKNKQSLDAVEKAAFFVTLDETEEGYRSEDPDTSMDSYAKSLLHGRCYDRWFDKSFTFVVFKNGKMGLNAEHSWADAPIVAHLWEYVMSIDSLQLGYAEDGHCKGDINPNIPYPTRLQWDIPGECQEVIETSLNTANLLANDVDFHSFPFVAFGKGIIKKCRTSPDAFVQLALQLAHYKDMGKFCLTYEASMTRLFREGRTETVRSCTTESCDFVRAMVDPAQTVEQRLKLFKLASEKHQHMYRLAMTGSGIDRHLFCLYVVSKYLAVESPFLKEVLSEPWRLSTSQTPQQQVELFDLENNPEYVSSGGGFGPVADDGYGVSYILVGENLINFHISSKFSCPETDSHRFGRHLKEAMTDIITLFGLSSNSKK

Which results are given for `CCOC(=O)[C@@]1(CCCCCCOc2ccc(Cl)cc2)CO1` [etomoxir]?
half-maximal inhibitory concentration (EC50) for uncoupler-stimulated respiration (A549 cells): sub-micromolar; gene expression of Relma, Mgl2, Ym1, Fabp4, Arg1 ([1]; 3 μM etomoxir, IL-4, 24 hr): no change; Fabp4 and Arg1 expression ([1]; 200 μM etomoxir, IL-4, 24 hr): no change; Relma, Mgl2, Ym1 expression ([1]; 200 μM etomoxir, IL-4, 24 hr): blocked the induction; also recorded: significantly decreased; Fabp4 expression ([1]; etomoxir, IL-4): unresponsive; oxidation of NADH (respiratory complex I): inhibit oxidation of NADH; EC50, FCCP-stimulated palmitoyl CoA-driven respiration (CPT-1): nanomolar; concentration of saturable effect (CPT-1): less than 3 μM

Source: US11813277B2, “Methods and agents for modulating inflammation” (The Regents of the University of California, priority 2018, dated 2023)
